Test results: BindingDB's records for PubMed 1646322 (Mayo Clinic, 1991)

Legend:
[1] = target: T1, Muscarinic acetylcholine receptor M4 (Rattus norvegicus, UniProt P08485)
T1 sequence (P08485 whole entry): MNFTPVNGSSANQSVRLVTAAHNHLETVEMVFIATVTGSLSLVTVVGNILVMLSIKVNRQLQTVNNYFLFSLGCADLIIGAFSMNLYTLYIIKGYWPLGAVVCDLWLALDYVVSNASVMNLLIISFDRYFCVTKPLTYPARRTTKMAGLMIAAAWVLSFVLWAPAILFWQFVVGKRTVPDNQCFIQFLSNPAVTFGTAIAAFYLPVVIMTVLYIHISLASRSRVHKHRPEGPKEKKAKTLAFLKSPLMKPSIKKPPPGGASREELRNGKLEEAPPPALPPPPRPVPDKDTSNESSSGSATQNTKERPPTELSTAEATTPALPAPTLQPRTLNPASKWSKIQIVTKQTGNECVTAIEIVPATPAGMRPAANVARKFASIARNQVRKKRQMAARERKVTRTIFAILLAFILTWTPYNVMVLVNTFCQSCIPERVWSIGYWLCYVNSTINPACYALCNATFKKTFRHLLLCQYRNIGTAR

[2] = target: T2, Muscarinic acetylcholine receptor M1 (Rattus norvegicus, UniProt P08482)
T2 sequence (P08482 whole entry): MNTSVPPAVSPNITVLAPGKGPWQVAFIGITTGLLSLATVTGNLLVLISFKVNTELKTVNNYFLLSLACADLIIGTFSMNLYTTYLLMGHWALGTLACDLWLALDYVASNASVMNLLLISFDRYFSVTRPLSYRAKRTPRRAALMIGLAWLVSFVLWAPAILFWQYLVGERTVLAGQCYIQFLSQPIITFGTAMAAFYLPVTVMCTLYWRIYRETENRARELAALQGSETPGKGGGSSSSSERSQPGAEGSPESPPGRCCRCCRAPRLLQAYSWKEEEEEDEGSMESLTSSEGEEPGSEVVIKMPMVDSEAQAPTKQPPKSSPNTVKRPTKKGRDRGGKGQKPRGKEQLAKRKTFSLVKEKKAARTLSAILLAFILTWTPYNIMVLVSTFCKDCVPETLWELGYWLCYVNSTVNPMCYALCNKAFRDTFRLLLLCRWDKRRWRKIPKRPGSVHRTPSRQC

O[Si](CCCN1CCCCC1)(c1ccccc1)C1CCCCC1 (stereo not drawn) [HHSiD]
Ki [1]: 47 nM | Ki [2]: 60 nM

C[N+]1(C)CCC(OC(=O)C(c2ccccc2)c2ccccc2)CC1
Ki [1]: 1.4 nM

CCN(CCCC(=O)C1CCCCC1)C(C)Cc1ccc(OC)cc1 (stereo not drawn) [NSC_42470]
Ki [1]: 7.8 nM | Ki [2]: 5.9 nM

CCN(CC)CC1CCCCN1CC(=O)N1c2ccccc2C(=O)Nc2cccnc21 (stereo not drawn) [(AF-DX 116) 11-[2-(2-Diethylaminomethyl-piperidin-1-yl)-acetyl]-5,11-dihydro-benzo[e]pyrido[3,2-b][1,4]diazepin-6-one]
Ki [1]: 614 nM | Ki [2]: 1200 nM

COc1ccccc1CNCCCCCCNCCCCCCCCNCCCCCCNCc1ccccc1OC [METHOCTRAMINE]
Ki [1]: 410 nM
